Patent US9932335B2 (priority 2013, dated 2018)
Changes are numbered by the printed parent chain. Read-outs that look alike come from different tables or passages of the source.

Key:
human M1 = target: T1, human M1 (Homo sapiens, UniProt P11229); assay: M1 PAM assay (FLIPR intracellular calcium, CHO human M1); format: cell-based
T1 construct: expressed in transfected cells; host or cells: CHO cells
T1 sequence (P11229 1-460): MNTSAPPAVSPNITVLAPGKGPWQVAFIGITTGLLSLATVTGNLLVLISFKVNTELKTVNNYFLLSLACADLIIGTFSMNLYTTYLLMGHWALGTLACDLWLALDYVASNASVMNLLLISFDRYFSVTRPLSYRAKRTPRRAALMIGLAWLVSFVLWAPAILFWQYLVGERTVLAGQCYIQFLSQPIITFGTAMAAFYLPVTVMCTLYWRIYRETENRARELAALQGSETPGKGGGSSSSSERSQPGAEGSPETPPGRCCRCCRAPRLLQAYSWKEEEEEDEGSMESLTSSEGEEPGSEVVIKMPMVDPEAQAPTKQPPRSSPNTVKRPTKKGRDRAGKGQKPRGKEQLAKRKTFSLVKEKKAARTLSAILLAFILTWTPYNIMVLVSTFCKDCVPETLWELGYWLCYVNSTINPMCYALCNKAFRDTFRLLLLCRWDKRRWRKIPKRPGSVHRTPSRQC
Description: The assay study the effect of several concentrations of test compounds on basal or acetylcholine-stimulated Ca^2+ levels using FLIPR. CHO human M1 are plated the day before the experiments at 2×10^5 cells/ml in PDL BioCoat 96 well black/clear plate (Becton 35 4640). The cells are grown at 37° C. and 5% CO2 in the following medium: F12 Nut Mix (Gibco 21765), 10% FCS heat inactivated (GIBCO 16000-044), 1% Pen Strep (Gibco, 15140) and 200 μg/ml Geneticin (Gibco 11811). On the day of the experiment, the medium was removed and replaced by 100 μl of dye loading buffer containing Hanks Balanced Salt solution (HBSS, 14065-049, Gibco) with 20 mM HEPES (Gibco 15630-056), 2 mM Probenicid (Sigma P8761), […] (Molecular Probes F-14202), 10% Pluronic acid Molecular Probes P-3000) pH=7.4 and incubated at 37° C. After 60 minutes extracellular dye was removed and the cells were washed five times with FLIPR buffer containing HBSS (Gibco 14065-049) with 20 mM HEPES (Gibco, 15630-056), 2 mM Probenicid (Sigma P8761) pre-warmed at 37° C. using and Ebml cell washer leaving 100 μl of FLIPR buffer in each well. The cell plate and the diluted compounds (1% DMSO final concentration) are placed on the platform of the FLIPR and the door closed. A signal test to check background fluorescence and basal fluorescence signal is performed. Laser intensity is adjusted if necessary. Two minutes preincubation with the diluted test compounds is provide to determine any agonist activity on the M1 receptor by comparison to 30 nM Acetylcholine control. In order to determine any modulator activity the diluted compounds were added to cells and after two minutes preincubation, the EC20 of acetylcholine is added followed by another two minutes preincubation before the measurement of intracellular Ca^2+ with a FLIPR (Molecular Devices).

M1 receptor = target: T2, M1 receptor (Rattus norvegicus, UniProt P08482); assay: M1 PAM assay (FLIPR intracellular calcium), rat; format: cell-based
T2 construct: expressed in transfected cells
T2 sequence (P08482 1-460): T1 sequence (P11229 1-460) with A5V, T254S, P309S, R320K, A337G, I413V

[1] = human M1 in CHO cells, modulator activity with EC20 of acetylcholine, FLIPR Ca2+, read-out: EC50 h PAM
[2] = rat, modulator activity with EC20 of acetylcholine, FLIPR Ca2+, read-out: EC50 rat PAM

Structure (SMILES) | EC50 (human M1; [1]) [nM] | EC50 (M1 receptor; [2]) [nM] | EC50 (human M1) [nM] | EC50 (M1 receptor) [nM]
Cn1cc(-c2ccc(Cn3cc(C(=O)N[C@H](CO)C(C)(C)C)c4ncccc43)c(F)c2)cn1 [Example 27, 1-[2-Fluoro-4-(1-methyl-1H-pyrazol-4-yl)-benzyl]-1H-pyrrolo[3,2-b]pyridine-3-carboxylic acid ((S)-1-hydroxymethyl-2,2-dimethyl-propyl)-amide] | 126 | 355 |  | 
Cn1cc(-c2ccc(Cn3cc(C(=O)NC4CCCCC4)c4ncccc43)c(F)c2)cn1 [Example 28, N-cyclohexyl-1-(2-fluoro-4-(1-methyl-1H-pyrazol-4-yl)benzyl)-1H-pyrrolo[3,2-b]pyridine-3-carboxamide] |  |  | 283 | 521
Cn1cc(-c2ccc(Cn3cc(C(=O)Nc4ncccc4CO)c4ncccc43)c(F)c2)cn1 [Example 30, 1-[2-Fluoro-4-(1-methyl-1H-pyrazol-4-yl)-benzyl]-1H-pyrrolo[3,2-b]pyridine-3-carboxylic acid (3-hydroxymethyl-pyridin-2-yl)-amide] |  |  | 82.4 | 210
Cn1cc(-c2ccc(Cn3cc(C(=O)N[C@H](CO)c4ccccc4)c4ncccc43)c(F)c2)cn1 [Example 32, 1-[2-Fluoro-4-(1-methyl-1H-pyrazol-4-yl)-benzyl]-1H-pyrrolo[3,2-b]pyridine-3-carboxylic acid ((S)-2-hydroxy-1-phenyl-ethyl)-amide] |  |  | 88.7 | 277
Cn1cc(-c2ccc(Cn3cc(C(=O)NC[C@@H](O)c4ccccc4)c4ncccc43)c(F)c2)cn1 [Example 34, 1-[2-Fluoro-4-(1-methyl-1H-pyrazol-4-yl)-benzyl]-1H-pyrrolo[3,2-b]pyridine-3-carboxylic acid ((S)-2-hydroxy-2-phenyl-ethyl)-amide] | 120 | 494 |  | 
Cn1cc(-c2ccc(Cn3cc(C(=O)Nc4ncccc4O)c4ncccc43)c(F)c2)cn1 [Example 36, 1-[2-Fluoro-4-(1-methyl-1H-pyrazol-4-yl)-benzyl]-1H-pyrrolo[3,2-b]pyridine-3-carboxylic acid (3-hydroxy-pyridin-2-yl)-amide] | 109 | 314 |  | 
Cn1cc(-c2ccc(Cn3cc(C(=O)N[C@H]4COCC[C@@H]4O)c4ncccc43)c(F)c2)cn1 [Example 41, 1-[[2-fluoro-4-(1-methylpyrazol-4-yl)phenyl]methyl]-N-[(3S,4S)-4-hydroxyoxan-3-yl]pyrrolo[3,2-b]pyridine-3-carboxamide] | 30.4 | 51 |  | 
Cc1ccc(Cn2cc(C(=O)N[C@H]3CCCC[C@@H]3O)c3ncccc32)cc1 [Example 43, N-((1S,2S)-2-hydroxycyclohexyl)-1-(4-methylbenzyl)-1H-pyrrolo[3,2-b]pyridine-3-carboxamide] |  |  | 207 | 611
COc1ccc(Cn2cc(C(=O)N[C@H]3CCCC[C@@H]3O)c3ncccc32)cc1F [Example 44, 1-(3-fluoro-4-methoxybenzyl)-N-((1S,2S)-2-hydroxycyclohexyl)-1H-pyrrolo[3,2-b]pyridine-3-carboxamide] |  |  | 127 | 598
Cc1ccc(Cn2cc(C(=O)N[C@H]3CCCC[C@@H]3O)c3ncccc32)cc1F [Example 46, 1-(3-fluoro-4-methylbenzyl)-N-((1S,2S)-2-hydroxycyclohexyl)-1H-pyrrolo[3,2-b]pyridine-3-carboxamide] |  |  | 257 | 444
COc1ccc(Cn2cc(C(=O)N[C@H]3CCCC[C@@H]3O)c3ncccc32)cc1 [Example 47, N-((1S,2S)-2-hydroxycyclohexyl)-1-(4-methoxybenzyl)-1H-pyrrolo[3,2-b]pyridine-3-carboxamide] |  |  | 163 | 217
O=C(N[C@H]1CCCC[C@@H]1O)c1cn(Cc2ccc(C(F)(F)F)nc2)c2cccnc12 [Example 48, N-((1S,2S)-2-hydroxycyclohexyl)-1-((6-(trifluoromethyl)pyridin-3-yl)methyl)-1H-pyrrolo[3,2-b]pyridine-3-carboxamide] |  |  | 1770 | 422
O=C(N[C@H]1CCCC[C@@H]1O)c1cn(Cc2ccc(-c3ccccc3)cc2)c2cccnc12 [Example 49, 1-(biphenyl-4-ylmethyl)-N-((1S,2S)-2-hydroxycyclohexyl)-1H-pyrrolo[3,2-b]pyridine-3-carboxamide] |  |  | 300 | 512
Cn1ncc2cc(Cn3cc(C(=O)N[C@H]4CCCC[C@@H]4O)c4ncccc43)ccc21 [Example 52, N-((1S,2S)-2-hydroxycyclohexyl)-1-((1-methyl-1H-indazol-5-yl)methyl)-1H-pyrrolo[3,2-b]pyridine-3-carboxamide] |  |  | 71.5 | 163
Cn1cc(-c2ccc(Cn3cc(C(=O)N[C@H]4CCCC[C@@H]4O)c4ncccc43)cc2)cn1 [Example 55, N-((1S,2S)-2-hydroxycyclohexyl)-1-(4-(1-methyl-1H-pyrazol-4-yl)benzyl)-1H-pyrrolo[3,2-b]pyridine-3-carboxamide] |  |  | 11.1 | 13.9
Cn1cc(-c2ccc(Cn3cc(C(=O)N[C@H]4CCCC[C@@H]4O)c4ncccc43)cn2)cn1 [Example 56, N-((1S,2S)-2-hydroxycyclohexyl)-1-((6-(1-methyl-1H-pyrazol-4-yl)pyridin-3-yl)methyl)-1H-pyrrolo[3,2-b]pyridine-3-carboxamide] |  |  | 34.9 | 71
O=C(N[C@H]1CCCC[C@@H]1O)c1cn(Cc2ccc(-c3nccs3)cc2)c2cccnc12 [Example 60, N-((1S,2S)-2-hydroxycyclohexyl)-1-(4-(thiazol-2-yl)benzyl)-1H-pyrrolo[3,2-b]pyridine-3-carboxamide] |  |  | 38.2 | 126
CNC(=O)c1ccc(Cn2cc(C(=O)N[C@H]3CCCC[C@@H]3O)c3ncccc32)cc1 [Example 61, N-((1S,2S)-2-hydroxycyclohexyl)-1-(4-(methylcarbamoyl)benzyl)-1H-pyrrolo[3,2-b]pyridine-3-carboxamide] |  |  | 9.1 | 18
O=C(NC1CCOCC1)c1cn(Cc2ccc3[nH]ncc3c2)c2cccnc12 [Example 62] |  |  | 428 | 325
Cn1cc(-c2ccc(Cn3cc(C(=O)NCc4cccnc4)c4ncccc43)c(F)c2)cn1 [Example 64] |  |  | 261 | 1060
Cn1cc(-c2ccc(Cn3cc(C(=O)NCC4(O)CC4)c4ncccc43)c(F)c2)cn1 [Example 65, 1-(2-fluoro-4-(1-methyl-1H-pyrazol-4-yl)benzyl)-N-((1-hydroxycyclopropyl)methyl)-1H-pyrrolo[3,2-b]pyridine-3-carboxamide] | 315 | 1390 |  | 
